The test system of assay [1] is Rattus norvegicus. Put plainly: Protective activity against isoniazid and rifampicin-induced hepatotoxicity in Wistar rat assessed as reduction of serum AST level at 2.5 mg/kg, po (reference value: 168.5 +/- 14.7 U). The format is functional.
In assay [2] the test system is Rattus norvegicus. Put plainly: Protective activity against isoniazid and rifampicin-induced hepatotoxicity in Wistar rat assessed as reduction of serum ALT level at 2.5 mg/kg, po (reference value: 143.7 +/- 12.5 U). It is filed as functional.
For assay [3], the species on record is Rattus norvegicus. Put plainly: Protective activity against isoniazid and rifampicin-induced hepatotoxicity in Wistar rat assessed as decrease of CYP2E1 mRNA expression in liver. The format is functional, organism-based.
The subject of assay [4] is Rattus norvegicus. Put plainly: Protective activity against isoniazid and rifampicin-induced hepatotoxicity in Wistar rat assessed as reduction of MDA level at 2.5 mg/kg, po (reference value: 30.5 +/- 7.8 nM/mg). It is filed as functional.
Assay [5] relates to Rattus norvegicus. Put plainly: Protective activity against isoniazid and rifampicin-induced hepatotoxicity in Wistar rat assessed as increase of SOD activity at 2.5 mg/kg, po (reference value: 31.4 +/- 8.3 U/mg). The format is functional.
For assay [6], the system named is Rattus norvegicus. Put plainly: Protective activity against isoniazid and rifampicin-induced hepatotoxicity in Wistar rat assessed as increase of GSH activity at 2.5 mg/kg, po (reference value: 29.4 +/- 11.4 uM/gram). The format is functional.
The species named for assay [7] is Rattus norvegicus. Put plainly: Protective activity against isoniazid and rifampicin-induced hepatotoxicity in Wistar rat by haematoxylin and eosin staining. It is filed as functional, organism-based.

The source made the active and inactive calls. The calls are words filed in the database; no cut-off is given here.

Take `O=C(/C=C/c1ccc(O)c(O)c1)NCCc1ccc(O)c(O)c1`: the Activity in assay [1] turned out to be 86.4 U; in assay [2], 80.6 U; in assay [4], 14.8 nM/mg; in assay [5], 57 U/mg; in assay [6], 49 µmol/g. Besides, the result in assay [3] and in assay [7] was Active.

For `O=C(O)/C=C/c1ccc(O)c(O)c1` [CAFFEIC ACID], the Activity turned out to be 115.6 U in assay [1]; 102.9 U in assay [2]; 23.5 nM/mg in assay [4]; 48 U/mg in assay [5]; 42.9 µmol/g in assay [6]. In addition, the outcome in assay [3] and in assay [7] was Active.

The values are drawn from ChEMBL document CHEMBL3627675, “Protective effects of the bioactive natural product N-trans-Caffeoyldopamine on hepatotoxicity induced by isoniazid and rifampicin” (2015).
